Test results from patent US20110165652A1, “COMPOSITIONS, METHODS AND SYSTEMS FOR SINGLE MOLECULE SEQUENCING” (LIFE TECHNOLOGIES CORPORATION, priority 2008, published 2011).

Each substance was assayed on 5′ fluorescein-labeled primer:template duplex (assay: Ensemble primer extension with gamma-labeled dNTP by Phi29 mutant protein). Details: cysteine to serine variants.
Assay type: biochemical
Text: Table 1, below, summarizes the ability of each mutant Phi29 polymerase to incorporate gamma-labeled nucleotides (as indicated in the column entitled “Ensemble Extension Activity”), fidelity of replication (as indicated in the column entitled “Fidelity”) and for activity in a single-molecule detected system, as depicted in FIGS. 20-59′ and 69-76 and associated description (see below), and indicated in the last column, entitled “Activity on Detection System.” Each and every mutation introduced into a given Phi29 mutant protein is listed in the column entitled “Mutations”; mutations are designated by the original amino acid/its position/its replacement, e.g., V250A means that valine at position 250 was replaced by alanine by site specific mutagenesis. If two or more amino acid substitutions are made, then each is designated as above and separated by a “/”. The predicted effect of a given mutation on polymerase activity, based on structure-function analysis of Phi29 polymerase, is provided in the column entitled “Expected Effect.” The various Phi29 mutants generated via selective mutagenesis, along with any applicable results of extension studies, fidelity assays and single molecule detection studies using each mutant protein, are collectively summarized in Table 1, below. To perform the extension studies, 330 nM Phi29 mutant protein and 100 nM 5′ fluorescein-labeled primer:template duplex were co-incubated in a solution comprising 50 mM Tris (pH 7.0), 2 mM MnCl2, 2 mM DTT, 0.1% Triton-X-100, 0.01% Tween-20. The reactions were initiated by addition of 0.5 μM or 5 μM of gamma-labeled dNTP, and quenched via addition of 30 mM EDTA at timepoints ranging from 10 seconds to 5 minutes. The reaction products were then separated on a 20% denaturing acrylamide gel and imaged on a Bio-Rad Molecular Imager FX. The intensity of each reaction product was quantified using Bio-Rad Quantity One software. FIGS. 20-59′ depict the results of extension studies conducted using specific Phi29 mutants.

Ensemble Extension Activity (polymerase active)	Substance
Slightly less	C22S/C290S/C448S: Phi29 exo(−) (D12A/D66A) polymerase mutant
Slightly less	C22S/C290S/C530S: Phi29 exo(−) (D12A/D66A) polymerase mutant
Slightly less	C22S/C448S/C530S: Phi29 exo(−) (D12A/D66A) polymerase mutant
Active	C22S: Phi29 exo(−) (D12A/D66A) polymerase mutant [Variant C22S]
Slightly less	C290S/C448S/C530S: Phi29 exo(−) (D12A/D66A) polymerase mutant
Active	C290S: Phi29 exo(−) (D12A/D66A) polymerase mutant [Variant C290S]
Active	C448S: Phi29 exo(−) (D12A/D66A) polymerase mutant [Variant C448S]
Active	C530S: Phi29 exo(−) (D12A/D66A) polymerase mutant [Variant C530S]

Same assay, conditions: relative to parent Phi29 exo(−) D12A/D66A; 0.5 μM or 5 μM gamma-labeled dNTP, 10 seconds to 5 minutes

Substance	Ensemble Extension Activity: γ-nucleotide incorporation
E375W: Phi29 exo(−) (D12A/D66A) polymerase mutant [Variant E375W]	Increased γ-nucleotide
E375Y/V250C: Phi29 exo(−) (D12A/D66A) polymerase mutant	decreased
E375Y/V250D: Phi29 exo(−) (D12A/D66A) polymerase mutant	no activity
E375Y/V250G: Phi29 exo(−) (D12A/D66A) polymerase mutant	no activity
E375Y/V250H: Phi29 exo(−) (D12A/D66A) polymerase mutant	decreased rate
E375Y/V250K: Phi29 exo(−) (D12A/D66A) polymerase mutant	no activity
E375Y/V250L: Phi29 exo(−) (D12A/D66A) polymerase mutant	decreased
E375Y/V250P: Phi29 exo(−) (D12A/D66A) polymerase mutant	no activity
E375Y/V250Q: Phi29 exo(−) (D12A/D66A) polymerase mutant	decreased
E375Y/V250R: Phi29 exo(−) (D12A/D66A) polymerase mutant	no activity
E375Y/V250S: Phi29 exo(−) (D12A/D66A) polymerase mutant	decreased
E375Y/V250T: Phi29 exo(−) (D12A/D66A) polymerase mutant	decreased
E375Y/V250W: Phi29 exo(−) (D12A/D66A) polymerase mutant	no activity
E486A: Phi29 exo(−) (D12A/D66A) polymerase mutant [Variant E486A]	Slightly decreased γ-
E486D: Phi29 exo(−) (D12A/D66A) polymerase mutant [Variant E486D]	Decreased γ-nucleotide
K371A: Phi29 exo(−) (D12A/D66A) polymerase mutant [Variant K371A]	Slightly lower than
K371T: Phi29 exo(−) (D12A/D66A) polymerase mutant [Variant K371T]	Slightly lower than
K383A: Phi29 exo(−) (D12A/D66A) polymerase mutant [Variant K383A]	Slightly lower than
K383P: Phi29 exo(−) (D12A/D66A) polymerase mutant [Variant K383P]	decreased γ-nucleotide
K383R: Phi29 exo(−) (D12A/D66A) polymerase mutant [Variant K383R]	Slightly lower than
